This note sets out measurements from patent US10259782B2, “ROR gamma (RORγ) modulators” (LEAD PHARMA HOLDING B.V., priority 2015, dated 2019).

The assay addresses T1, RORγ (Homo sapiens, UniProt P51449).
T1 construct: expressed in transfected cells; host or cells: 293FT cells (Invitrogen), expression vector pFN26A (Promega)
T1 sequence (P51449 269-508 limits assumed): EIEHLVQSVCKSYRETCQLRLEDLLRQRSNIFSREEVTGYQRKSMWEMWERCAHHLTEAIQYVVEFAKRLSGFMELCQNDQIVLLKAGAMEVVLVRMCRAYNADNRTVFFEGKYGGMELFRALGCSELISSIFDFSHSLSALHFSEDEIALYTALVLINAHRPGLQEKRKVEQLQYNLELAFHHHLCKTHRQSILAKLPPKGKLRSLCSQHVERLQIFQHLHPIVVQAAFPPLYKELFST
Description: RORγ GAL4 reporter gene assay (luciferase readout, 293FT cells). To be noted: inhibition of RORγ (GAL4-RORγ-LBD) in transfected 293FT cells, luciferase signal, overnight incubation; read-out: mean pIC50 (converted). Type of assay: cell-based. How it is done: RORγ GAL4 Reporter Gene Assay
Example inhibitors 1-47 were tested for their ability to inhibit RORγ activity in a RORγ GAL4 reporter gene assay. The assay procedure and results are described below.
RORγ GAL4 Reporter Gene Assay Description
A GAL4 one-hybrid reporter system employing luciferase readout was established to determine inhibition of RORγ in 293FT cells. The RORγ ligand-binding domain (LBD) was fused to the yeast GAL4 DNA binding domain (DBD) and placed under the control of the human cytomegalovirus (CMV) immediate early promoter, using expression vector pFN26A (Promega) and standard recombinant DNA cloning methods. To serve as a control in the assay, a similar vector was generated in which the GAL4-DBD was fused to Herpes simplex virus protein 16 (VP16), a constitutive transcriptional activator.
To monitor the inhibitory effect of compounds on RORγ, a transcriptional reporter construct was used. The pGL4.35 vector (Promega) contains nine copies of the GAL4 Upstream Activator Sequence (UAS). This sequence drives the transcription of the luciferase reporter gene luc2P in response to binding of a fusion protein containing the GAL4 DNA binding domain, as for example expressed by the GAL4-RORγ-LBD and GAL4-VP16 expression vectors described above. To allow a GAL4 fusion protein to drive the expression of the luciferase reporter, the pGL4.35 expression vector and the appropriate GAL4 fusion protein expression vector were bulk transfected in the 293FT cells using standard transfection techniques.
The day after transfection, cells were plated into 96 well plates, test compound was added and the plates were incubated overnight. Subsequently, the firefly luciferase activity was quantified using luciferase detection reagent and luminescence readout.
Detailed Assay Description
293FT cells (Invitrogen) were transfected with a GAL4 fusion protein expression vector (as described above) and the transcriptional reporter construct (pGL4.35, Promega). 60 μL of TransIT-293 transfection reagent (Mirus Bio) was added drop wise to 1500 μl Opti-MEM I Reduced Serum Medium (Invitrogen) and incubated at room temperature (RT) for 5 to 20 minutes. 1500 μL of this reagent mixture was added to 5 μg of GAL4 fusion protein expression vector and 5 μg of the transcriptional reporter construct, and incubated at RT for 20 minutes.
To harvest 293FT cells from a T75 flask, first the culture medium was taken off the cells. Subsequently, the cells were washed with Phosphate Buffered Saline (PBS) (Lonza), after which the PBS was removed. To dissociate the cells, 1 ml of TrypLE Express (Invitrogen) was added to the flask, followed by incubation at RT until the cells visually started to detach. Cells were collected in 5 mL of assay medium (DMEM culture medium (Lonza), 10% dialyzed FBS (Invitrogen) and Pen/Strep (Lonza)) to achieve a single cell suspension. 10×10^6 cells were spun down and re-suspended in 10 mL of assay medium. Subsequently, the cell suspension was added to the transfection mix tube, and then transferred as a whole to a T75 flask (Greiner), followed by overnight (16-24 hours) incubation at 37° C. and 5% CO2.
For compound screening, the cells were harvested (as described above) and counted. 13×10^6 cells were spun down, the supernatant was aspirated and the cells were re-suspended in 17.3 mL of assay medium obtaining a cell suspension of 0.75×10^6 cells/mL. 80 μL of cell suspension (60,000 cells) was plated per well into a white, flat bottom, tissue culture treated, 96 well screening plates (Greiner).
Test compounds were diluted, starting from a 10 mM dimethylsulf oxide (DMSO) stock solution, to serial dilutions in DMSO at 500× the final test concentration. Subsequently, these solutions were diluted to 5× the final test concentration in two 10-fold-dilution steps in assay medium. The final DMSO concentration of the 5× test compound solution was 1%. […]
In general terms: In a reporter assay the amount or activity of a reporter protein is the signal.
In the case of `O=C(Cc1ccc(S(=O)(=O)NC2CC2)cc1)Nc1nc(-c2ccccc2)c(C(=O)c2ccccc2)s1` [Example 26, N-(5-benzoyl-4-phenyl-1,3-thiazol-2-yl)-2-[4-(cyclopropylsulfamoyl)phenyl]acetamide], the IC50 was not above 100 nM.
Next, `O=C(Cc1ccc(S(=O)(=O)CC2CC2)cc1)Nc1cc(-c2ccccc2)c(C(=O)c2ccccc2)s1` [Example 27, N-(5-benzoyl-4-phenylthiophen-2-yl)-2-(4-cyclopropylmethanesulfonylphenyl)acetamide]: not above 100 nM.
Next, `O=C(Cc1ccc(S(=O)(=O)CC2CC2)cc1)Nc1ccc(-c2ccccc2OC(F)(F)F)c(Cl)c1` [Example 28, N-{3-chloro-4-[2-(trifluoromethoxy)phenyl]phenyl}-2-(4-cyclopropylmethanesulfonylphenyl)acetamide]: not above 100 nM.
`Cc1cc(NC(=O)Cc2ccc(S(=O)(=O)CC3CC3)cc2)ccc1-c1ccccc1OC(F)(F)F` [Example 29, 2-(4-cyclopropylmethanesulfonylphenyl)-N-{3-methyl-4-[2-(trifluoromethoxy)phenyl]phenyl}acetamide]: the IC50 was not above 100 nM.
The figure for `O=C(Cc1ccc(S(=O)(=O)CC2CC2)cc1)Nc1cc(Cl)c(-c2ccccc2OC(F)(F)F)c(Cl)c1` [Example 30, 2-(4-cyclopropylmethanesulfonylphenyl)-N-{3,5-dichloro-4-[2-(trifluoromethoxy)phenyl]phenyl}acetamide] is not above 100 nM; for `Cc1cc(NC(=O)Cc2ccc(S(=O)(=O)CC3CC3)cc2)ncc1-c1ccccc1OC(F)(F)F` [Example 31, 2-(4-cyclopropylmethanesulfonylphenyl)-N-{4-methyl-5-[2-(trifluoromethoxy)phenyl]pyridin-2-yl}acetamide] it is not above 100 nM.
Regarding `Cc1nc(NC(=O)Cc2ccc(S(=O)(=O)CC3CC3)cc2)ccc1-c1ccccc1OC(F)(F)F` [Example 32, 2-(4-cyclopropylmethanesulfonylphenyl)-N-{6-methyl-5-[2-(trifluoromethoxy)phenyl]pyridin-2-yl}acetamide], the IC50 is not above 100 nM.
On to `O=C(Cc1ccc(S(=O)(=O)NC2CC2)cc1)Nc1ccc(-c2ccccc2OC(F)(F)F)c(Cl)c1` [Example 33, N-{3-chloro-4-[2-(trifluoromethoxy)phenyl]phenyl}-2-[4-(cyclopropylsulfamoyl)phenyl]acetamide], for which the IC50 is not above 100 nM.
Next, `Cc1nc(NC(=O)Cc2ccc(S(=O)(=O)NC3CC3)cc2)ccc1-c1ccccc1OC(F)(F)F` [Example 34, 2-[4-(cyclopropylsulfamoyl)phenyl]-N-{6-methyl-5-[2-(trifluoromethoxy)phenyl]pyridin-2-yl}acetamide]: not above 100 nM.
For the molecule `Cc1cc(NC(=O)Cc2ccc(S(=O)(=O)NC3CC3)cc2)ncc1-c1ccccc1OC(F)(F)F` [Example 35, 2-[4-(cyclopropylsulfamoyl)phenyl]-N-{4-methyl-5-[2-(trifluoromethoxy)phenyl]pyridin-2-yl}acetamide], the IC50 was not above 1000 nM.
Regarding `Cc1cc(NC(=O)Cc2ccc(S(=O)(=O)NC3CC3)cc2)ccc1-c1ccccc1OC(F)(F)F` [Example 36, 2-[4-(cyclopropylsulfamoyl)phenyl]-N-{3-methyl-4-[2-(trifluoromethoxy)phenyl]phenyl}acetamide], the IC50 is not above 100 nM.
As for `Cc1cc(NC(=O)Cc2ccc(S(=O)(=O)CC3CC3)cc2)nc(C)c1-c1ccccc1OC(F)(F)F` [Example 37, 2-(4-cyclopropylmethanesulfonylphenyl)-N-{4,6-dimethyl-5-[2-(trifluoromethoxy)phenyl]pyridin-2-yl}acetamide], the IC50 is not above 100 nM.
In the case of `Cc1ccn(-c2ccc(NC(=O)Cc3ccc(S(=O)(=O)CC4CC4)cc3)cc2)n1` [Example 40, 2-(4-cyclopropylmethanesulfonylphenyl)-N-[4-(3-methyl-1H-pyrazol-1-yl)phenyl]acetamide], the IC50 is not above 1000 nM.
`Cc1ccnn1-c1ccc(NC(=O)Cc2ccc(S(=O)(=O)CC3CC3)cc2)cc1` [Example 41, 2-(4-cyclopropylmethanesulfonylphenyl)-N-[4-(5-methyl-1H-pyrazol-1-yl)phenyl]acetamide]: the IC50 was not above 1000 nM.
Regarding `Cc1cnn(-c2ccc(NC(=O)Cc3ccc(S(=O)(=O)CC4CC4)cc3)cc2)c1` [Example 42, 2-(4-cyclopropylmethanesulfonylphenyl)-N-[4-(4-methyl-1H-pyrazol-1-yl)phenyl]acetamide], the IC50 was not above 1000 nM.
In the case of `O=C(Cc1ccc(S(=O)(=O)CC2CC2)cc1)Nc1ccc(-c2cnco2)cc1` [Example 43, 2-(4-cyclopropylmethanesulfonylphenyl)-N-[4-(1,3-oxazol-5-yl)phenyl]acetamide], the IC50 is not above 1000 nM.
`O=C(Cc1ccc(S(=O)(=O)CC2CC2)cc1)Nc1ccc(-n2cccn2)cc1` [Example 44, 2-(4-cyclopropylmethanesulfonylphenyl)-N-[4-(1H-pyrazol-1-yl)phenyl]acetamide]: the IC50 was not above 1000 nM.
The figure for `O=C(Cc1ccc(S(=O)(=O)CC2CC2)cc1)Nc1ccc(-n2cncn2)cc1` [Example 46, 2-(4-cyclopropylmethanesulfonylphenyl)-N-[4-(1H-1,2,4-triazol-1-yl)phenyl]acetamide] is not above 1000 nM; for `O=C(Cc1ccc(S(=O)(=O)CC2CC2)cc1)Nc1ccc(-c2ncon2)cc1` [Example 47, 2-(4-cyclopropylmethanesulfonylphenyl)-N-[4-(1,2,4-oxadiazol-3-yl)phenyl]acetamide] it is not above 1000 nM.
